From patent US4225619A, “Substituted fluoracylresorcinols” (Boehringer Ingelheim GmBH, priority 1976, dated 1980)
≈ marks a conversion by molar mass, not a printed value.

How the values were obtained:
Format in all cases: cell-based
[1] = test system: Staphylococcus aureus SG 511; test: Agar diffusion test (hole-test); conditions: SG511, 18-20 hours at 37° C., read-out: MIC, A.D.T., Staphylococcus aureus SG 511
Procedure: (§1) The inhibitory effect on bacteria and fungi was examined by the serial dilution test and the agar diffusion test (hole-test). As bacteria were used: Staphylococcus aureus SG 511, Streptococcus Aronson, Streptococcus pyogenes At CC 86 68; as fungi: Candida albicans AT CC 10231, Trichophyton mentagrophytes AT CC 9129 and Aspergillus niger.
1. Meat extract agar: for St. aureus SG 511
(§2) The age of the primary cultures is 24 hours for bacteria and 14 days for fungi. The standardization of the suspension of microorganisms is effected using a photometer according to Eppendorf (test tube .phi.14 mm, filter 546 nm) and a suspension for comparison consisting of barium sulfate, this suspension being created by addition of 3.0 ml of 1% barium chloride solution to 97 ml of 1% sulfuric acid. After the standardization St. aureus SG 511 was diluted 1:1000 and Sc. pyogenes and Aronson 1:100 by means of sodium chloride solution. The fungi were used in an undiluted state.
(§3) 40 mgm of the substance were put into a 10 ml measuring flask and filled up to the mark with the solvent (corresponds to a dilution of 1:250=4000 μg/ml).
(§4) The dilutions to the concentrations under test were effected with distilled water or the respective solvent.
(§5) 19 ml of the nutrient medium were filled into sterile Petri dishes of a diameter of 8 cm and dried. Subsequently the agar plates were charged with 4 ml of seed agar. 100 ml of seed agar contain 1.25 ml of the suspension of microorganisms, an agar plate thus containing 0.05 ml of the suspension of microorganisms. After solidification of the agar, 5 holes of a diameter of 5 mm were punched into the plates and filled with 0.05 ml of the correspondingly concentrated substance solution.
(§6) Control tests merely using the solvent are to be carried out simultaneously.
(§7) Bacteria were incubated at 37° C. for 18-20 hours and fungi at 27° C. for 7 days.
(§8) The diameter of the area of inhibition in mm was measured after having deducted the diameter of the hole.

[2] = test system: Streptococcus pyogenes At CC 86 68; test: Serial dilution test; conditions: Streptococcus pyogenes, ATCC8668, 18-20 hours at 37° C., read-out: MIC, S.D.T., Streptococcus pyogenes
Procedure: as §1
(§9) 2. Glucose broth: for Sc. Aronson and St. pyogenes Recipe see meat extract broth. After sterilization 1 weight percent of glucose is added as a sterile 50% solution.
(§10) The age of the primary cultures is 24 hours for bacteria and 14 days for fungi. The standardization of the suspension of microorganisms is effected using a photometer according to Eppendorf (test tube .phi.14 mm, filter 546 nm) and a suspension for comparison consisting of barium sulfate, this suspension being created by adition of 3.0 ml of 1% barium chloride solution to 97 ml of 1% sulfuric acid. After the standardization the bacteria were further diluted to a concentration of 1:1000 by means of sodium chloride solution, the fungi were used in an undiluted state.
(§11) 40 mgm of the substance were put into a 10 ml measuring flask and filled up to the mark with the solvent (corresponds to a dilution of 1:250=4000 μg/ml). The further dilution series was standardized with distilled water or the respective solvent and the following substance concentrations were prepared: 1000; 250; 62.5 μg/ml.
(§12) The tubes were filled with 4.9 ml of the corresponding liquid nutrient medium. Then 0.1 ml of the substance dilution prepared above was added to each tube, so that the mentioned final concentrations were present. Finally each tube was inoculated with 0.1 ml of the standardized suspension of microorganisms. Control tests merely using the solvent are to be carried out simultaneously.
as §7
(§13) The measurement is carried out macroscopically defining the minimal inhibitory concentration (the lowest still microbiostatically effective concentration).

Streptococcus Aronson [3] = test: Serial dilution test; conditions: Streptococcus, 18-20 hours at 37° C., read-out: MIC, S.D.T., Streptococcus Aronson
Procedure: as §1, §9, §10, §11, §12, §7, §13

[4] = test system: Streptococcus pyogenes At CC 86 68; test: Agar diffusion test (hole-test); conditions: ATCC8668, 18-20 hours at 37° C., read-out: MIC, A.D.T., Streptococcus pyogenes
Procedure: as §1
(§14) 2. Glucose agar: for Sc. Aronson and St. pyogenes Recipe see meat extract agar. After sterilization 1 weight percent of glucose is added as a sterile 50% solution.
as §2, §3, §4, §5, §6, §7, §8

Streptococcus Aronson [5] = test: Agar diffusion test (hole-test); conditions: 18-20 hours at 37° C., read-out: MIC, A.D.T., Streptococcus Aronson
Procedure: as §1, §14, §2, §3, §4, §5, §6, §7, §8

Aspergillus niger [6] = test: Agar diffusion test (hole-test); conditions: 168 h, 27° C. for 7 days, read-out: MIC, A.D.T., Aspergillus niger
Procedure: as §1
(§15) 3. Sabouraud agar: for C. alb., Trich. ment., A. niger
as §2, §3, §4, §5, §6, §7, §8

[7] = test system: Trichophyton mentagrophytes AT CC 9129; test: Agar diffusion test (hole-test); conditions: ATCC9129, 168 h, 27° C. for 7 days, read-out: MIC, A.D.T., Trichophyton mentagrophytes
Procedure: as §1, §15, §2, §3, §4, §5, §6, §7, §8

[8] = test system: Candida albicans AT CC 10231; test: Agar diffusion test (hole-test); conditions: ATCC10231, 168 h, 27° C. for 7 days, read-out: MIC, A.D.T., Candida albicans
Procedure: as §1, §15, §2, §3, §4, §5, §6, §7, §8

Aspergillus niger [9] = test: Serial dilution test; conditions: for MIC: Aspergillus niger, 168 h, 27° C. for 7 days, read-out: MIC, S.D.T., Aspergillus niger
Procedure: as §1
(§16) 3. Sabouraud broth: for C. alb., Trich. mnt., A. niger
as §10, §11, §12, §7, §13

[10] = test system: Trichophyton mentagrophytes AT CC 9129; test: Serial dilution test; conditions: ATCC9129, 168 h, 27° C. for 7 days, read-out: MIC, S.D.T., Trichophyton mentagrophytes
Procedure: as §1, §16, §10, §11, §12, §7, §13

[11] = test system: Candida albicans AT CC 10231; test: Serial dilution test; conditions: for MIC: Candida albicans, ATCC10231, 168 h, 27° C. for 7 days, read-out: MIC, S.D.T., Candida albicans
Procedure: as §1, §16, §10, §11, §12, §7, §13

Pityrosporum ovale = test: Serial dilution test for Pityrosporum ovale; conditions: Malassezia furfur, 168 h, 27° C. for 7 days, read-out: MIC, S.D.T., Pityrosporum ovale
Procedure: Serial dilution test for Corynebacterium acnes and Pityrosporum ovale Nutrient medium
For Corynebacterium acnes: thioglycolate-broth for Pityrosporum ovale: Littmann's broth, 5 ml per tube.
Suspension of microorganisms in 0.9% sodium chloride solution, standardized using a photometer according to Eppendorf by means of a suspension for comparison consisting of barium sulfate, for Corynebacterium acnes in a dilution of 1:100, for Pityrosporum ovale in an undiluted state. 0.1 ml of the suspensions was used per test tube. Dimethyl sulfoxide served as a solvent for the substances.
The suspension with Corynebacteria acnes was incubated at 37° C. for 48 hours, the suspension of Pityrosporum ovale at 27° C. for 7 days. The reading was effected by macroscopic evaluation of the growth of microorganisms and registration of the minimal inhibitory concentration.

[12] = reduced growth at this concentration

SMILES	MIC [1] [µg/mL]	MIC [2] [µg/mL]	MIC (Streptococcus Aronson [3]) [µg/mL]	MIC [4] [µg/mL]	MIC (Streptococcus Aronson [5]) [µg/mL]	MIC (Aspergillus niger [6]) [µg/mL]	MIC [7] [µg/mL]	MIC [8] [µg/mL]	MIC (Aspergillus niger [9]) [µg/mL]	MIC [10] [µg/mL]	MIC [11] [µg/mL]	MIC (Pityrosporum ovale) [µg/mL]	Concentration with reduced growth (value in brackets), S.D.T., Aspergillus niger (Aspergillus niger [9]; [12]) [µg/mL]	Concentration with reduced growth (value in brackets), S.D.T., Candida albicans [11, 12] [µg/mL]
CCc1c(O)ccc(C(=O)C(F)(F)F)c1O [C, 3-Ethyl-2,4-dihydroxy-trifluoroacetophenone, reference compound]	62.5 (≈ 267 µM)	1.25 (≈ 5.34 µM)	5 (≈ 21.4 µM)	62.5 (≈ 267 µM)	62.5 (≈ 267 µM)	1000 (≈ 4270 µM)	62.5 (≈ 267 µM)	1000 (≈ 4270 µM)	5 (≈ 21.4 µM)	1.25 (≈ 5.34 µM)	20 (≈ 85.4 µM)	> 80		
COc1ccc(C(=O)C(F)(F)F)c(OC)c1 [D, 2,4-Dimethoxy-trifluoroacetophenone, reference compound]	> 4000	> 80	> 80	> 4000	> 4000	> 4000	> 4000	> 4000	> 80	> 80	> 80	> 80		
CCc1cc(C(=O)C(F)(F)F)c(O)cc1O [B, 5-Ethyl-2,4-dihydroxy-trifluoroacetophenone, reference compound]	250 (≈ 1070 µM)	20 (≈ 85.4 µM)	20 (≈ 85.4 µM)	250 (≈ 1070 µM)	250 (≈ 1070 µM)	250 (≈ 1070 µM)	250 (≈ 1070 µM)	1000 (≈ 4270 µM)	20 (≈ 85.4 µM)	5 (≈ 21.4 µM)	20 (≈ 85.4 µM)	80 (≈ 342 µM)		
O=C(c1ccc(O)cc1O)C(F)(F)F [A, 2,4-Dihydroxy-trifluoroacetophenone, reference compound]	1000 (≈ 4850 µM)		80 (≈ 388 µM)		1000 (≈ 4850 µM)	250 (≈ 1210 µM)	250 (≈ 1210 µM)	1000 (≈ 4850 µM)	20 (≈ 97 µM)	20 (≈ 97 µM)	80 (≈ 388 µM)	80 (≈ 388 µM)		
CC(C)Cc1c(O)ccc(C(=O)C(F)(F)F)c1O [F, 2,4-Dihydroxy-3-iso-butyl-trifluoroacetophenone]	62.5 (≈ 238 µM)	1.25 (≈ 4.77 µM)	1.25 (≈ 4.77 µM)	≤ 15.6	≤ 15.6	250 (≈ 953 µM)	≤ 15.6	250 (≈ 953 µM)	20 (≈ 76.3 µM)	1.25 (≈ 4.77 µM)	20 (≈ 76.3 µM)	80 (≈ 305 µM)		

Further lines, with some results ahead:

MIC [1] [µg/mL]	MIC [2] [µg/mL]	MIC (Streptococcus Aronson [3]) [µg/mL]	MIC [4] [µg/mL]	MIC (Streptococcus Aronson [5]) [µg/mL]	MIC (Aspergillus niger [6]) [µg/mL]	MIC [7] [µg/mL]	MIC [8] [µg/mL]	MIC (Aspergillus niger [9]) [µg/mL]	MIC [10] [µg/mL]	MIC [11] [µg/mL]	MIC (Pityrosporum ovale) [µg/mL]	SMILES	Concentration with reduced growth (value in brackets), S.D.T., Aspergillus niger (Aspergillus niger [9]; [12]) [µg/mL]	Concentration with reduced growth (value in brackets), S.D.T., Candida albicans [11, 12] [µg/mL]
62.5 (≈ 252 µM)	1.25 (≈ 5.04 µM)	1.25 (≈ 5.04 µM)	62.5 (≈ 252 µM)	≤ 15.6								CC(C)c1c(O)ccc(C(=O)C(F)(F)F)c1O [P, 2,4-Dihydroxy-3-isopropyl-trifluoroacetophenone]		
≤ 15.6	0.31 (≈ 1.03 µM)	1.25 (≈ 4.14 µM)	≤ 15.6	≤ 15.6	62.5 (≈ 207 µM)	≤ 15.6	1000 (≈ 3310 µM)		1.25 (≈ 4.14 µM)		> 80	CC1CCC(c2c(O)ccc(C(=O)C(F)(F)F)c2O)CC1 (stereo not drawn) [H, 2,4-Dihydroxy-3-(4'-methyl)-cyclohexyl-trifluoro-acetophenone]	80	80
